Earlier results in patent publication US6388175B1, “Control of leaf scald disease” (priority 1995, dated 2002).
Entries after “also recorded” stand apart in the source; their conditions may differ.

Settings: 100° C. for 30 min

## albicidin
  Activity after heating: unaffected; also recorded: little activity is lost
